Drawing on BindingDB's records for doi:10.1016/s0960-894x(02)00585-1 (Corvas International, 2002), this text covers Ki for 36 molecules.

The structures appear in SMILES notation. pKi: −log10 of the molar value.

This assay has as its target Prothrombin (Homo sapiens, UniProt P00734). Briefly: In vitro inhibitory activity against human Thrombin (FIIa) cleavage of the chromogenic substrate.
Take `Cc1ccc(NS(=O)(=O)c2ccc3c(c2)CCO3)c(=O)n1CC(=O)NCc1ccc2c[nH]nc2c1`: the pKi (in general, the negative decadic logarithm of the Ki, by convention in mol/L) was 5.88. Regarding `Cc1cc2cn[nH]c2cc1CNC(=O)Cn1c(C)ccc(NS(=O)(=O)Cc2ccccc2)c1=O`, the negative logarithm of the Ki (pKi) was 6.57. Then `Cc1cnc(NCCc2ccc3c(c2)CCC3)c(=O)n1CC(=O)NCc1ccc2[nH]ccc2c1`, with 7.52. Then `Cc1cnc(NCCc2ccccn2)c(=O)n1CC(=O)NCc1ccc2[nH]ncc2c1`, with 8.51. Then `Cc1cnc(NC[C@H](C)c2ccccc2)c(=O)n1CC(=O)NCc1ccc2[nH]ncc2c1`, with 8.24; and `Cc1cnc(NC[C@@H](C)c2ccccc2)c(=O)n1CC(=O)NCc1ccc2[nH]cnc2c1`, with 8.03. In turn, `Cc1ccc(NS(=O)(=O)Cc2ccccc2)c(=O)n1CC(=O)NCc1ccc2c(N)noc2n1` gave a negative-log Ki (pKi) of 6.69.

`Cc1cnc(NCC(F)(F)c2ccccc2)c(=O)n1CC(=O)NCc1ccc2[nH]nc(N)c2c1` showed a negative-log Ki (pKi) of 8.39. With `Cc1cnc(NCC2(c3ccccc3)CCC2)c(=O)n1CC(=O)NCc1ccc2[nH]nc(O)c2c1`, the pKi was 8.00. Take `Cc1ccc(NS(=O)(=O)Cc2ccccc2)c(=O)n1CC(=O)NCc1ccc2c(N)[nH]nc2c1`: the negative logarithm of the Ki (pKi) is 6.65. Then `Cc1cnc(NCC2(c3ccc(F)cc3)CC2)c(=O)n1CC(=O)NCc1ccc2[nH]nc(N)c2c1`, with 7.82; and `Cc1cnc(NCC2(c3ccccn3)CC2)c(=O)n1CC(=O)NCc1ccc2c(N)noc2c1`, with 7.59; and `Cc1cnc(NCC(c2ccccc2)c2ccccc2)c(=O)n1CC(=O)NCc1ccc2c(N)noc2c1`, with 7.51. Consider `Cc1ccc(NS(=O)(=O)c2ccc3c(c2)CCO3)c(=O)n1CC(=O)NCc1ccc2[nH]ncc2c1`, for which the negative logarithm of the Ki (pKi) is 8.41. Then `Cc1ccc(NS(=O)(=O)c2ccc3c(c2)CCO3)c(=O)n1CC(=O)NCc1ccc2[nH]nc(N)c2c1`, with 7.54; and `Cc1ccc(NS(=O)(=O)Cc2ccc(Cl)cc2)c(=O)n1CC(=O)NCc1ccc2[nH]cnc2c1`, with 8.19. `COc1ccc(C2(CNc3ncc(C)n(CC(=O)NCc4ccc5[nH]nc(N)c5c4)c3=O)CC2)cc1` had a negative-log Ki (pKi) of 8.05. In the case of `Cc1cnc(NCCc2ccccc2)c(=O)n1CC(=O)NCc1ccc2[nH]nc(O)c2c1`, the pKi is 7.48. Molecule `Cc1cnc(NCC(F)(F)c2ccccc2)c(=O)n1CC(=O)NCc1ccc2c(N)noc2c1` had a pKi of 8.60.

In turn, `CCc1cnc(NCCc2ccccc2)c(=O)n1CC(=O)NCc1ccc2[nH]ccc2c1` showed a pKi of 7.62. In the case of `Cc1cnc(NCCc2ccccc2)c(=O)n1CC(=O)NCc1ccc2c(N)noc2c1`, the pKi was 7.09. Then `Cc1cnc(NCC2(c3ccc(F)cc3)CC2)c(=O)n1CC(=O)NCc1ccc2c(N)noc2c1`, with 7.80. Then `Cc1cnc(NCCc2ccccc2)c(=O)n1CC(=O)NCc1ccc2[nH]ncc2c1`, with 7.74; and `Cc1cnc(NCCc2ccc3c(c2)CCC3)c(=O)n1CC(=O)NCc1ccc2c(ccn2N)c1`, with 4.91. Take `Cc1nc2cc(CNC(=O)Cn3c(C)cnc(NCCc4ccccc4)c3=O)ccc2[nH]1`: the pKi is under 5.40. Then `Cc1ccc(NS(=O)(=O)Cc2ccccc2)c(=O)n1CC(=O)NCc1ccc2c(N)[nH]nc2n1`, with 5.80; and `COc1ccc(CCNc2ncc(C)n(CC(=O)NCc3ccc4[nH]cnc4c3)c2=O)cc1`, with 8.30. The molecule `Cc1ccc(NS(=O)(=O)Cc2ccccc2)c(=O)n1CC(=O)NCc1ccc2[nH]nc(N)c2c1` had a negative-log Ki (pKi) of 7.14. For the molecule `Cc1n[nH]c2ccc(CNC(=O)Cn3c(C)cnc(NCCc4ccccc4)c3=O)cc12`, the pKi was 6.35. Then `Cc1cnc(NCCc2ccc3c(c2)CCO3)c(=O)n1CC(=O)NCc1ccc2[nH]ncc2c1`, with 8.54.

In turn, `Cc1cnc(NCCc2ccc(F)cc2)c(=O)n1CC(=O)NCc1ccc2c(N)noc2c1` had a pKi of 7.74. Then `Cc1cnc(NCCc2ccccc2)c(=O)n1CC(=O)NCc1ccc2nc(N)sc2c1`, with under 5.40; and `Cc1ccc(NS(=O)(=O)Cc2ccccc2)c(=O)n1CC(=O)NCc1ccc2c(N)noc2c1`, with 7.13. On to `COc1cccc(CCNc2ncc(C)n(CC(=O)NCc3ccc4[nH]ncc4c3)c2=O)c1`, for which the pKi is 8.00. Molecule `Cc1cnc(NCCc2ccccc2)c(=O)n1CC(=O)NCc1ccc2[nH]nnc2c1` showed a pKi of 6.65. `Cc1nc(N)ccc1CNC(=O)Cn1c(C)ccc(NS(=O)(=O)Cc2ccccc2)c1=O` [L-374087] had a pKi of 9.15.
